9 molecules from US10745360B2, “Quinoxaline compounds, method for preparing the same and use thereof” (Development Center for Biotechnology, priority 2014, dated 2020) can be followed below.

Experiment [1] has as its target T1, B-Raf kinase (Homo sapiens, UniProt P15056).
T1 construct: purchased Upstate Biotechnology
The experiment can be described thus: B-Raf kinase assay ([33P] incorporation into MEK1 K97R). The format is biochemical. As to conditions: recombinant B-Raf, 8 μM ATP, 30 min, 30° C.; read-out: IC50 ranking against B-Raf kinase. As for the experimental part:
Inhibition of kinase activity by a test compound disclosed herein was estimated by quantifying the amount of [^33P] incorporation of a substrate in the presence of the test compound. Standard assay conditions were 5 ng of recombinant B-Raf kinase (Upstate Biotechnology) with 500 ng MEK1(Map-erk kinase; K97R) in the assay buffer (8 μM ATP, 0.5 μCi [^33P]ATP (specific activity 3000 Ci/mmol, PerkinElmer), 50 mM Tris/HCl (pH 7.5), and 1 mM EGTA, 1 mM Na3VO4, 1% 2-mercaptoethanol, 0.1% Brij 35, and 0.2 mg/ml BSA) in a final volume of 25 μL. Reactions were incubated at 30° C. for 30 min and stopped by adding 3% phosphoric acid, harvested onto a 96-well GF/B UniFilter (PerkinElmer) using a unifilter harvester (PerkinElmer), and counted with a TopCount microplate scintillation counter (PerkinElmer). The IC50 values of inhibitors were determined after carrying out assays at 3-fold serially diluted concentrations of each compound in duplication. The results were analyzed using linear regression software (GraphPad Prism 4; GraphPad Software Inc.).

Experiment [2] concerns the target T2, B-Raf^V600E kinase (Homo sapiens, UniProt P15056, V600E).
T2 construct: purchased Upstate Biotechnology
The experiment can be described thus: B-Raf V600E kinase assay ([33P] incorporation into MEK1 K97R). The format is biochemical. As to conditions: recombinant B-Raf^V600E, 8 μM ATP, 30 min, 30° C.; read-out: IC50 ranking against B-Raf^V600E kinase. On the procedure:
(§1) Inhibition of kinase activity by a test compound disclosed herein was estimated by quantifying the amount of [^33P] incorporation of a substrate in the presence of the test compound. Standard assay conditions were 5 ng of recombinant B-Raf^V600E kinase (Upstate Biotechnology) with 500 ng MEK1 (K97R) in assay buffer (8 μM ATP, 0.5 μCi [^33P]ATP (specific activity 3000 Ci/mmol, PerkinElmer), 50 mM Tris/HCl (pH 7.5), and 1 mM EGTA, 1 mM Na3VO4, 1% 2-mercaptoethanol, 0.1% Brij 35, and 0.2 mg/ml BSA), and the test compound (diluted with 4% DMSO) or DMSO alone (as a control) in a final volume of 25 μL. Reactions were incubated at 30° C. for 30 min and stopped by adding 3% phosphoric acid, harvested onto a 96-well GF/B UniFilter (PerkinElmer) using a unifilter harvester (PerkinElmer), and counted with a TopCount microplate scintillation counter (PerkinElmer). The IC50 values of inhibitors were determined after carrying out assays at 3-fold serially diluted concentrations of each compound in duplication. The results were analyzed using linear regression software (GraphPad Prism 4; GraphPad Software Inc.).

In experiment [3] the target is T3, C-Raf kinase (Homo sapiens, UniProt P04049).
T3 construct: purchased Upstate Biotechnology
T3 sequence (P04049 whole entry): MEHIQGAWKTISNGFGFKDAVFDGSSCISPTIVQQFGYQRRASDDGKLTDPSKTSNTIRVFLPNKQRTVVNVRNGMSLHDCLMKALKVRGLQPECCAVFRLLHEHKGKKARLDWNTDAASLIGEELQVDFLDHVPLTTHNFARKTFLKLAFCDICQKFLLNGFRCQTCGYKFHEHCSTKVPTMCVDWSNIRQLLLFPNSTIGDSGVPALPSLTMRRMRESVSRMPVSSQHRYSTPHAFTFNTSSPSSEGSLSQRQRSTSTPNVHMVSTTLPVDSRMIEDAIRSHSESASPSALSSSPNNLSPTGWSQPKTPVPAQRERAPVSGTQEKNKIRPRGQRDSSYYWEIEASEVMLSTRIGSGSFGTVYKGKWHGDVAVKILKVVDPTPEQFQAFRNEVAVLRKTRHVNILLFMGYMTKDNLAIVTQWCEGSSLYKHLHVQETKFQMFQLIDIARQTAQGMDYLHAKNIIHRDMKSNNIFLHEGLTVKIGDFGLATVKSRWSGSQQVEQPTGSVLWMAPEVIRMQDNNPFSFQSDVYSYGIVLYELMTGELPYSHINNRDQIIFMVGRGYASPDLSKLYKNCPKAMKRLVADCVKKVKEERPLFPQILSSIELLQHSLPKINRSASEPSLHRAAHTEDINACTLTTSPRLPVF
Put plainly: C-Raf kinase assay ([33P] incorporation into MEK1 K97R). The format is biochemical. As to conditions: recombinant C-Raf, 8 μM ATP, 30 min, 30° C.; read-out: IC50 ranking against C-Raf kinase. As for the experimental part:
as §1, with “were 2” for “were 5”, “recombinant C-Raf” for “recombinant B-Raf^V600E”, “ng MEK1(K97R)” for “ng MEK1 (K97R)”

Experiment [4] concerns B-Raf^V600E mutant A375 melanoma cell. Put plainly: Cell proliferation assay (CELLTITER 96), A375. The conditions noted are these: Homo sapiens, A-375; A375, 72 hours; read-out: Cytotoxicity (IC50 Ranking) A375 (B-Raf^V600E). It counts as cell-based. On the procedure:
(§2) Inhibition of cell growth by compounds was measured using CELLTITER 96® assay. The cytotoxicity of compounds was evaluated in B-Raf^V600E mutant A375 melanoma cell, B-Raf^V600E mutant COLO205 colon cancer cell, and SK-MEL-2 melanoma cell with wild type B-Raf (B-Raf^wt) and NRASQ^Q61R mutation. A375 and COLO205 cell line were cultured in DMEM containing 10% FCS and incubated at 37° C. in 5% CO2 atmosphere. SK-MEL-2 cell line was cultured in MEM containing 10% FCS and incubated at 37° C. in 5% CO2 atmosphere. A375, COLO205 and SK-MEL-2 cell were seeded into 96-well plates at 2000, 2000, and 4000 cells/well, respectively, and allowed to adhere for overnight. Then, these seeded cells were treated with increasing concentrations of the test compounds and incubated for another 72 hours. At the end of the incubation, CELLTITER 96® Aqueous One Solution Reagent (Promega) was added and incubated for 4 hours. Cell viability was determined by measuring absorbance at 490 nm using EMAX® microplate reader (Molecular Devices).
(§3) The 50% inhibitory concentration (IC50) value was calculated by plotting the percentage of growth inhibition against the concentration of compound, using GraphPad Prism5 software for curve fitting.

The subject of experiment [5] is B-Raf^V600E mutant COLO205 colon cancer cell. Put plainly: Cell proliferation assay (CELLTITER 96), COLO205. The format is cell-based. As to conditions: Homo sapiens, COLO 205; COLO205, 72 hours; read-out: Cytotoxicity (IC50 Ranking) COLO205 (B-Raf^V600E). As for the experimental part: as §2, §3
For experiment [6], the system named is SK-MEL-2 melanoma cell with wild type B-Raf (B-Raf^wt) and NRAS^Q61R mutation. The experiment can be described thus: Cell proliferation assay (CELLTITER 96), SK-MEL-2. The conditions noted are these: Homo sapiens; SK-MEL-2, 72 hours; given as bound; read-out: Cytotoxicity (IC50 Ranking) SK-MEL-2 (NRAS^Q61R, B-Raf^wt). It counts as cell-based. As for the experimental part:
as §2, §3

SMILES strings stand for the structures.

T1 sequence (P15056 whole entry): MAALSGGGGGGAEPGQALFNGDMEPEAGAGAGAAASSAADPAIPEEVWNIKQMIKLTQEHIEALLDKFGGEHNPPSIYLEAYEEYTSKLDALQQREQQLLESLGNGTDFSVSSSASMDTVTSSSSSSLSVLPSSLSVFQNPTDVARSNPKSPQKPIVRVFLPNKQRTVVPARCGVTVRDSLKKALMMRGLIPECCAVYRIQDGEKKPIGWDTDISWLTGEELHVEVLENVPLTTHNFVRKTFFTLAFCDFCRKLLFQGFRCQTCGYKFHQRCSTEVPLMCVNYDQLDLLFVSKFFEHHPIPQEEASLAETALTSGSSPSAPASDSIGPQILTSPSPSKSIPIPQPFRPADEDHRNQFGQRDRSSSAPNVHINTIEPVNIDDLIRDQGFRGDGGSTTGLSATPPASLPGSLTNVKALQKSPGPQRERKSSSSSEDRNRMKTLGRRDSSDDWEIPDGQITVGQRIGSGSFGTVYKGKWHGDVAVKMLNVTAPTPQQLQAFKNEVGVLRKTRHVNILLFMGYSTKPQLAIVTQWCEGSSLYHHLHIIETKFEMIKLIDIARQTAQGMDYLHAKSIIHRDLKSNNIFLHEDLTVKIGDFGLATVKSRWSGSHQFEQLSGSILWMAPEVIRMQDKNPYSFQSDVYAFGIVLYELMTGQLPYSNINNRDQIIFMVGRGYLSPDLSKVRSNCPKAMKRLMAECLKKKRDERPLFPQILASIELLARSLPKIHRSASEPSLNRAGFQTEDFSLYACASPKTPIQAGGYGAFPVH
T2 sequence (P15056 whole entry V600E): as the sequence (P15056 whole entry) above, with V600E counted along it

As to `COc1cnc2ccc(Nc3c(F)ccc(NS(C)(=O)=O)c3F)c([N+](=O)[O-])c2n1` [compound 14, N-{2,4-difluoro-3-[(3-methoxy-5-nitro-6-quinoxalinyl)amino]phenyl}methanesulfonamide], the IC50 in experiment [1] is 300 to 1000 nM; in experiment [2], 300 to 1000 nM; in experiment [3], 300 to 1000 nM; in experiment [4] it was 1000 to 10000 nM; in experiment [5] it was 1000 to 10000 nM; in experiment [6] it was greater than 10000 nM.
On to `CCCS(=O)(=O)Nc1ccc(F)c(Nc2ccc3ncc(OCC)nc3c2C#N)c1F` [compound 17, N-(3-(5-cyano-3-ethoxyquinoxalin-6-ylamino)-2,4-difluorophenyl)propane-1-sulfonamide], for which the IC50 in experiment [1] was less than 300 nM; in experiment [2], less than 300 nM; in experiment [3], less than 300 nM; in experiment [4], less than 300 nM; in experiment [5], less than 300 nM; in experiment [6], greater than 10000 nM.
As for `COc1cnc2ccc(Nc3c(F)ccc(NS(=O)(=O)c4ccccc4)c3Cl)c(C#N)c2n1` [compound 47, N-(2-chloro-3-(5-cyano-3-methoxyquinoxalin-6-ylamino)-4-fluorophenyl)benzenesulfonamide], the IC50 was less than 300 nM in experiment [1]; less than 300 nM in experiment [2]; less than 300 nM in experiment [3]; less than 300 nM in experiment [4]; less than 300 nM in experiment [5]; greater than 10000 nM in experiment [6].
With `CCCS(=O)(=O)Nc1c(F)ccc(Nc2ccc3ncc(OC)nc3c2C#N)c1F` [compound 21, N-(3-(5-cyano-3-methoxyquinoxalin-6-ylamino)-2,6-difluorophenyl)propane-1-sulfonamide], the IC50 in experiment [1] is less than 300 nM; in experiment [2], less than 300 nM; in experiment [3], less than 300 nM; in experiment [4] it was less than 300 nM; in experiment [5], less than 300 nM; in experiment [6], greater than 10000 nM.
With `CCCS(=O)(=O)Nc1ccc(F)c(Nc2ccc3ncc(OC)nc3c2C(=O)O)c1F` [compound 30, 6-(2,6-difluoro-3-(propylsulfonamido)phenylamino)-3-methoxyquinoxaline-5-carboxylic acid], the IC50 is 300 to 1000 nM in experiment [1]; 300 to 1000 nM in experiment [2]; 300 to 1000 nM in experiment [3]; 1000 to 10000 nM in experiment [4]; 1000 to 10000 nM in experiment [5]; greater than 10000 nM in experiment [6].
With `CCCS(=O)(=O)Nc1cccc(Nc2ccc3ncc(OC)nc3c2C#N)c1C` [compound 44, N-(3-(5-cyano-3-methoxyquinoxalin-6-ylamino)-2-methylphenyl)propane-1-sulfonamide], the IC50 in experiment [1] is less than 300 nM; in experiment [2] it was 300 to 1000 nM; in experiment [3] it was less than 300 nM; in experiment [4], 300 to 1000 nM; in experiment [5] it was 300 to 1000 nM; in experiment [6], greater than 10000 nM.
As for `CCCS(=O)(=O)Nc1cc(Nc2ccc3ncc(OC)nc3c2C#N)ccc1F` [compound 22, N-(5-(5-cyano-3-methoxyquinoxalin-6-ylamino)-2-fluorophenyl)propane-1-sulfonamide], the IC50 is less than 300 nM in experiment [1]; less than 300 nM in experiment [2]; less than 300 nM in experiment [3]; less than 300 nM in experiment [4]; less than 300 nM in experiment [5]; greater than 10000 nM in experiment [6].
For `CCCS(=O)(=O)Nc1ccc(F)c(Nc2ccc3ncc(N4CCOCC4)nc3c2C#N)c1F` [compound 19, N-(3-(5-cyano-3-morpholinoquinoxalin-6-ylamino)-2,4-difluorophenyl)propane-1-sulfonamide], the IC50 in experiment [1] is less than 300 nM; in experiment [2], less than 300 nM; in experiment [3], less than 300 nM; in experiment [4], less than 300 nM; in experiment [5], less than 300 nM; in experiment [6], greater than 10000 nM.
For the molecule `CCOc1cnc2ccc(Nc3cc(NS(C)(=O)=O)ccc3F)c(C#N)c2n1` [compound 27, N-(3-(5-cyano-3-ethoxyquinoxalin-6-ylamino)-4-fluorophenyl)methanesulfonamide], the IC50 in experiment [1] is 1000 to 10000 nM; in experiment [2], 1000 to 10000 nM; in experiment [3], 1000 to 10000 nM; in experiment [4], 1000 to 10000 nM; in experiment [5] it was 300 to 1000 nM; in experiment [6], greater than 10000 nM.
